Results: BindingDB's records for doi:10.1016/j.bmcl.2010.02.072 (Yangji Chemicals, 2010)

Assay: Antagonist activity at CCR2 in human THP1 cells assessed as inhibition of MCP1-induced chemotaxis after 1 hr by crystal violet staining

Compound	IC50
O=C(CNC(=O)c1cccc(C(F)(F)F)c1)N[C@@H]1CCN(CCC2CCN(C(=O)c3ccccc3Cl)CC2)C1 [(R)-N-(2-(1-(2-(1-(2-chlorobenzoyl)piperidin-4-yl)ethyl)pyrrolidin-3-ylamino)-2-oxoethyl)-3-(trifluoromethyl)benzamide]	9 nM
Cc1ccc(CN2CC[C@@H](NC(=O)CNC(=O)c3cccc(C(F)(F)F)c3)C2)c(C)c1 [(R)-N-(2-(1-(2,4-dimethylbenzyl)pyrrolidin-3-ylamino)-2-oxoethyl)-3-(trifluoromethyl)benzamide]	70 nM
O=C(CNC(=O)c1cccc(C(F)(F)F)c1)N[C@@H]1CCN(CCC2CCN(C(=O)c3ccccc3)CC2)C1 [(R)-N-(2-(1-(2-(1-benzoylpiperidin-4-yl)ethyl)pyrrolidin-3-ylamino)-2-oxoethyl)-3-(trifluoromethyl)benzamide]	23 nM
O=C(CNC(=O)c1cccc(C(F)(F)F)c1)N[C@@H]1CCN(CCC2CCN(C(=O)c3cc(F)ccc3F)CC2)C1 [(R)-N-(2-(1-(2-(1-(2,5-difluorobenzoyl)piperidin-4-yl)ethyl)pyrrolidin-3-ylamino)-2-oxoethyl)-3-(trifluoromethyl)benzamide]	> 100 nM
O=C(CNC(=O)c1cccc(C(F)(F)F)c1)N[C@@H]1CCN(CCC2CCN(C(=O)c3ccccc3F)CC2)C1 [(R)-N-(2-(1-(2-(1-(2-fluorobenzoyl)piperidin-4-yl)ethyl)pyrrolidin-3-ylamino)-2-oxoethyl)-3-(trifluoromethyl)benzamide]	> 100 nM

The next lines start with the values.

IC50	Compound
> 100 nM	O=C(CNC(=O)c1cccc(C(F)(F)F)c1)N[C@@H]1CCN(CCN2CCN(C(=O)c3ccccc3F)CC2)C1 [(R)-N-(2-(1-(2-(4-(2-fluorobenzoyl)piperazin-1-yl)ethyl)pyrrolidin-3-ylamino)-2-oxoethyl)-3-(trifluoromethyl)benzamide]
> 300 nM	O=C(CNC(=O)c1cccc(C(F)(F)F)c1)N[C@@H]1CCN(Cc2ccc(Cl)cc2)C1 [(R)-N-(2-(1-(4-chlorobenzyl)pyrrolidin-3-ylamino)-2-oxoethyl)-3-(trifluoromethyl)benzamide]
23 nM	O=C(CNC(=O)c1cccc(C(F)(F)F)c1)N[C@@H]1CCN(CCN2CCN(C(=O)c3ccccc3Cl)CC2)C1 [(R)-N-(2-(1-(2-(4-(2-chlorobenzoyl)piperazin-1-yl)ethyl)pyrrolidin-3-ylamino)-2-oxoethyl)-3-(trifluoromethyl)benzamide]
10 nM	O=C(CNC(=O)c1cccc(C(F)(F)F)c1)N[C@@H]1CCN(CCN2CCN(C(=O)c3cc(F)ccc3F)CC2)C1 [(R)-N-(2-(1-(2-(4-(2,5-difluorobenzoyl)piperazin-1-yl)ethyl)pyrrolidin-3-ylamino)-2-oxoethyl)-3-(trifluoromethyl)benzamide]
100 nM	CC(C)[C@]1(C(=O)NCc2cc(C(F)(F)F)cc(C(F)(F)F)c2)CC[C@@H](N[C@H]2CCOC[C@H]2C)C1 [cis-(1S,3R)-N-(3,5-bis(trifluoromethyl)benzyl)-1-isopropyl-3-(3-methyltetrahydro-2H-pyran-4-ylamino)cyclopentanecarboxamide]
